Laboratory results as given in patent publication US20240207268A1, “PYRAZOLYLPYRIMIDINES FOR TREATING MALIGNANT SOLID TUMOR” (BIOTHERYX, INC., priority 2021, published 2024).

Assays:
[1] = Steady state toxicokinetics of compound A22 in Sprague Dawley rats (28-day study); conditions: rat, in vivo, oral gavage
Method: (§1) The toxicology studies of compound A22 were performed in Sprague Dawley rats and Beagle dogs. In GLP, 28-day (once daily, 7 days per week) studies, compound A22 was administered as a di-HCl salt or di-p-toluenesulfonate salt by oral gavage. The results are summarized in Tables 1 and 2, where HNSTD is highest nonseverely toxic dose; NOAEL is no-observed-adverse-effect-level; and STDio is severely toxic dose in 10%.

[2] = Steady state toxicokinetics of compound A22 in Beagle dogs (28-day study); conditions: dog, in vivo, oral gavage
Method: as §1

[3] = test system: Sprague Dawley rats; assay: GLP 28-day oral toxicology study of compound A22 in Sprague Dawley rats; assay type: in vivo; conditions: once daily oral gavage, di-HCl or di-p-toluenesulfonate salt
Method: as §1

[4] = as above; assay type: in vivo; conditions: rat, in vivo, once daily oral gavage, di-HCl or di-p-toluenesulfonate salt, read-out: NOAEL (no-observed-adverse-effect-level) dose
Method: as §1

[5] = test system: Beagle dogs; assay: GLP 28-day oral toxicology study of compound A22 in Beagle dogs; assay type: in vivo; conditions: once daily oral gavage, di-HCl or di-p-toluenesulfonate salt
Method: as §1

[6] = as above; assay type: in vivo; conditions: dog, in vivo, once daily oral gavage, di-HCl or di-p-toluenesulfonate salt, read-out: NOAEL (no-observed-adverse-effect-level) dose
Method: as §1

[7] = Solubility in water; assay type: physicochemical; conditions: in water at 25° C.
[8] = female rats, 0.7 mg/kg/day (NOAEL)
[9] = female rats, 2.5 mg/kg/day (STD10)
[10] = male rats, 0.7 mg/kg/day (NOAEL)
[11] = male rats, 2.5 mg/kg/day (STD10)
[12] = female dogs, 0.06 mg/kg/day (NOAEL)
[13] = female dogs, 0.2 mg/kg/day (HNSTD)
[14] = male dogs, 0.06 mg/kg/day (NOAEL)
[15] = male dogs, 0.2 mg/kg/day (HNSTD)

Structure (SMILES): Cn1ncc(-c2nc(N[C@H]3CC[C@H](N)CC3)ncc2Cl)c1CC1CC1 [A22, (1r,4r)-N^1-(5-chloro-4-(5-(cyclopropylmethyl)-1-methyl-1H-pyrazol-4-yl)pyrimidin-2-yl)cyclohexane-1,4-diamine]
- AUC(0-t) [1, 8]: 160 ng·h/mL
- Cmax [1, 8]: 13.6 ng/mL
- AUC(0-t) [1, 9]: 2390 ng·h/mL
- Cmax [1, 9]: 156 ng/mL
- AUC(0-t) [1, 10]: 152 ng·h/mL
- Cmax [1, 10]: 13.7 ng/mL
- AUC(0-t) [1, 11]: 2520 ng·h/mL
- Cmax [1, 11]: 184 ng/mL
- AUC(0-t) [2, 12]: 129 ng·h/mL
- Cmax [2, 12]: 7.55 ng/mL
- AUC(0-t) [2, 13]: 471 ng·h/mL
- Cmax [2, 13]: 30.6 ng/mL
- AUC(0-t) [2, 14]: 102 ng·h/mL
- Cmax [2, 14]: 6.38 ng/mL
- AUC(0-t) [2, 15]: 567 ng·h/mL
- Cmax [2, 15]: 34.4 ng/mL
- STD10 (severely toxic dose in 10%) dose [3]: 2.5 mg/kg/day
- NOAEL at 28 day [4]: 0.7 mg/kg/day
- HNSTD (highest nonseverely toxic dose) [5]: 0.2 mg/kg/day
- NOAEL at 28 day [6]: 0.06 mg/kg/day

Structure (SMILES): Cc1ccc(S(=O)(=O)O)cc1.Cc1ccc(S(=O)(=O)O)cc1.Cn1ncc(-c2nc(N[C@H]3CC[C@H](N)CC3)ncc2Cl)c1CC1CC1 [crystalline di-p-toluenesulfonate salt, di-p-toluensulfonate of (1r,4r)-N^1-(5-chloro-4-(5-(cyclopropylmethyl)-1-methyl-1H-pyrazol-4-yl)pyrimidin-2-yl)cyclohexane-1,4-diamine]
- solubility [7]: about 2 mg/mL
